Test results reported in patent US7807678B2, “Peptidomimetics of biologically active metallopeptides” (Palatin Technologies, Inc., priority 2001, dated 2010).

Columns and labels:
[1] = target: T1, MC1-R (B-16 mouse melanoma cells) (Mus musculus, UniProt Q01727); assay: Competitive inhibition binding assay, 125I-NDP-α-MSH, MC1-R; conditions: 1 μM compound; inhibition of 125I-NDP-α-MSH binding; mean of triplicates; results less than 0% reported as 0%
T1 construct: B-16 mouse melanoma cells (containing MC1-R); endogenous in cells; host or cells: B-16 mouse melanoma cells
Outline: (§1)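 Membranes from hMC3-R, hMC4-R or hMC5-R cells, or B-16 mouse melanoma cells (MC1-R), were incubated 90 min at room temperature with 0.4 nM 125I-NDP-α-MSH in HEPES pH 7.2 with Mg2+/Ca2+/K+, and test compound generally at 1 μM. Filter-bound radioactivity was gamma counted. Specific binding was defined with 1 μM α-MSH; triplicate means.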

[2] = target: T1, MC1-R (B-16 mouse melanoma cells); assay: cAMP assay for agonist/antagonist status, MC1-R; format: cell-based
Protocol: (§2) The Ki (nM) of certain peptidomimetics were determined, as was the agonist/antagonist status with respect to MC4-R, Functional evaluation of compounds at melanocortin receptors was performed by measuring the accumulation of intracellular cAMP in HEK-293 cells expressing MC3-R, MC4-R or MC5-R, and in B-16 mouse melanoma cells (containing MC1-R). Antagonistic activity was determined by measuring the inhibition of α-MSH-induced cAMP levels following exposure to the compounds. Cells, suspended in Earle's Balanced Salt Solution containing 10 mM HEPES, pH 7.5, 5 mM MgCl2, 1 mM glutamine, 0.1% albumin and 0.6 mM 3-isobutyl-1-methyl-xanthine, a phosphodiesterase inhibitor, were plated in 96 well plates at a density of 0.5×10^5 cells per well. Cells were incubated with the test compounds in the presence or absence of α-MSH for 1 hour at 37° C. cAMP levels were measured by EIA (Amersham) in the cell lysates. Data analysis and EC50 values were determined using nonlinear regression analysis with Prism Graph-Pad software.

MC4-R (HEK-293 cells) = target: T2, MC4-R (HEK-293 cells) (Homo sapiens, UniProt P32245); assay: cAMP assay for agonist/antagonist status, MC4-R; format: cell-based
T2 construct: expressed in transfected cells; host or cells: HEK-293
Protocol: as §2

MC5-R (HEK-293 cells) = target: T3, MC5-R (HEK-293 cells) (Homo sapiens, UniProt P33032); assay: cAMP assay for agonist/antagonist status, MC5-R; format: cell-based
T3 construct: expressed in transfected cells; host or cells: HEK-293
Protocol: as §2

MC3-R [3] = target: T4, MC3-R (Homo sapiens, UniProt P41968); assay: Competitive inhibition binding assay, 125I-NDP-α-MSH, MC3-R; parameters: expressed in transfected cells; conditions: 1 μM compound; inhibition of 125I-NDP-α-MSH binding; mean of triplicates; results less than 0% reported as 0%
Outline: as §1

MC4-R = MC4-R (Homo sapiens, UniProt P32245); assay: Competitive inhibition binding assay, 125I-NDP-α-MSH, MC4-R; parameters: expressed in transfected cells; conditions: 1 μM compound; inhibition of 125I-NDP-α-MSH binding; mean of triplicates; results less than 0% reported as 0%
Outline: as §1

MC5-R = MC5-R (Homo sapiens, UniProt P33032); assay: Competitive inhibition binding assay, 125I-NDP-α-MSH, MC5-R; parameters: expressed in transfected cells; conditions: 1 μM compound; inhibition of 125I-NDP-α-MSH binding; mean of triplicates; results less than 0% reported as 0%
Outline: as §1

MC3-R [4] = target: T4, MC3-R; assay: Ki determination by the method of Example 4, MC3-R; format: binding; parameters: expressed in transfected cells; host or cells: HEK-293; conditions: bound in μM; read-out: Ki MC3-R
Protocol: as §2

T4 sequence (P41968 whole entry): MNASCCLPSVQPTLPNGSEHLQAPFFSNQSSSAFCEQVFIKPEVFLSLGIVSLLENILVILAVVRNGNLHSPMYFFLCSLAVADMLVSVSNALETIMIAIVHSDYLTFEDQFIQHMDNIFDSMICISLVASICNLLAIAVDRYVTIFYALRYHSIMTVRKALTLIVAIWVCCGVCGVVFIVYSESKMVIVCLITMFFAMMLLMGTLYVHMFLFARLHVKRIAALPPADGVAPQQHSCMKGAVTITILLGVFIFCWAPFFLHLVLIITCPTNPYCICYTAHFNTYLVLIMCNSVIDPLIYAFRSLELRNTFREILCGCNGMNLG
Sequence of MC5-R (P33032 whole entry): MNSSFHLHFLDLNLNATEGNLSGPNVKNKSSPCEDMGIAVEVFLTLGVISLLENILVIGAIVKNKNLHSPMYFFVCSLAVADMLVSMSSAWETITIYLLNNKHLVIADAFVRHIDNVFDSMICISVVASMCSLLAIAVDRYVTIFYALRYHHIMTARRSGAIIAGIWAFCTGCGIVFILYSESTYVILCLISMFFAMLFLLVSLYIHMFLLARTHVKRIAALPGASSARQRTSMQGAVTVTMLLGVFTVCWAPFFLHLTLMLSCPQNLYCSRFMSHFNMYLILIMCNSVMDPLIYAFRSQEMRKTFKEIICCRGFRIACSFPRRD
T3 sequence (P33032 whole entry): as above
Sequence of MC4-R (P32245 whole entry): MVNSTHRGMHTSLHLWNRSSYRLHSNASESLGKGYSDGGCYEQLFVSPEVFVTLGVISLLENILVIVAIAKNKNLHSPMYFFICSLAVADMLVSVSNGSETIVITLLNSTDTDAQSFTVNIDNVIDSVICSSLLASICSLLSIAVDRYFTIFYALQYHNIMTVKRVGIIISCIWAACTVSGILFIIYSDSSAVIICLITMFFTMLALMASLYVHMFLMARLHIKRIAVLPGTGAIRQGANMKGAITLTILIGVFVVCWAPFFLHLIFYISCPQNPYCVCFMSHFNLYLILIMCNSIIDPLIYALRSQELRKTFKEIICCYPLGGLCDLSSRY
T2 sequence (P32245 whole entry): as above
T1 sequence (Q01727 whole entry): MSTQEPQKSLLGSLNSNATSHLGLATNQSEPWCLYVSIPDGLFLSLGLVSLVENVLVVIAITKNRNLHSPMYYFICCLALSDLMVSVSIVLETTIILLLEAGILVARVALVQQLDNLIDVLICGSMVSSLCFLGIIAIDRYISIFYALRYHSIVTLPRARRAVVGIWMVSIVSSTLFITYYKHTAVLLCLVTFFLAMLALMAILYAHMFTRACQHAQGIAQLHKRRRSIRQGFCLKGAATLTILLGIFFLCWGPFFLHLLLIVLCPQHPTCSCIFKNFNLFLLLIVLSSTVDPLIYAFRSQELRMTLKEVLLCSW

SMILES	Inhibition at 1 μM MC1-R [1] [%]	agonist/antagonist status as to MC1-R [2]	agonist/antagonist status as to MC4-R (MC4-R (HEK-293 cells))	agonist/antagonist status as to MC5-R (MC5-R (HEK-293 cells))	Inhibition at 1 μM MC3-R (MC3-R [3]) [%]	Inhibition at 1 μM MC4-R (MC4-R) [%]	Inhibition at 1 μM MC5-R (MC5-R) [%]	Ki (MC3-R [4]) [µM]
NCCCC[C@H]1C(=O)N(CCc2ccc3ccccc3c2)CCN1C(=O)[C@@H](Cc1ccc(Cl)cc1Cl)NC(=O)[C@@H]1C[C@@H](OCc2ccccc2)CN1 [Example 25]	21	agonist	agonist	agonist	61	100	83	
NCCCC[C@H]1C(=O)N(CCc2ccc3ccccc3c2)CCN1C(=O)[C@@H](Cc1ccc(Cl)cc1Cl)NC(=O)[C@H]1CC[C@@H](c2ccccc2)N1 [Example 27]	0	agonist	agonist	agonist	9	71	46	
NCCCC[C@H]1C(=O)N(CCc2ccc3ccccc3c2)CCN1C(=O)[C@@H](Cc1ccc(Cl)cc1Cl)NC(=O)C/C=C/c1ccccc1 [Example 33]	14	antagonist	antagonist	agonist	25	91	61	
NCCCC[C@H]1C(=O)N(CCc2ccc3ccccc3c2)CCN1C(=O)[C@@H](Cc1ccc(Cl)cc1Cl)NC(=O)CCc1ccccc1 [Example 36]	72	agonist	antagonist	agonist	22	92	34	
NCCCC[C@H]1C(=O)N(CCc2ccc3ccccc3c2)CCN1C(=O)[C@@H](Cc1ccc(Cl)cc1Cl)NC(=O)c1ccc(Oc2ccccc2)cc1 [Example 37]	35	antagonist	antagonist	agonist	51	99	51	
NCCCC[C@H]1C(=O)N(CCc2ccc3ccccc3c2)CCN1C(=O)[C@@H](Cc1ccc(Cl)cc1Cl)NC(=O)c1cccc(Oc2ccccc2)c1 [Example 38]	3	antagonist	antagonist	agonist	21	97	61	
NCCCC[C@H]1C(=O)N(CCc2ccc3ccccc3c2)CCN1C(=O)[C@@H](Cc1ccc(Cl)cc1Cl)NCc1ccc(-c2ccccc2)cc1 [Example 39]	0	antagonist	antagonist	agonist	4	85	9	
NCCCC[C@H]1C(=O)N(CCc2ccc3ccccc3c2)CCN1C(=O)[C@@H](Cc1ccc(Cl)cc1Cl)NCCOCc1ccccc1 [Example 40]	27	antagonist	antagonist	agonist	17	91	30	
NCCCC[C@H]1C(=O)N(CCc2ccc3ccccc3c2)CCN1C(=O)[C@@H](Cc1ccc(Cl)cc1Cl)NCc1ccc2ccccc2c1 [Example 41]	4	antagonist	antagonist	agonist	4	84	2	
NC(=O)NCCC[C@H]1C(=O)N(CCc2ccc3ccccc3c2)CCN1C(=O)[C@@H](Cc1ccc(Cl)cc1Cl)NC(=O)[C@@H](N)COCc1ccccc1 [Example 44]	8	agonist	agonist	agonist	43	94	66	
N=C(N)NCCC[C@H]1C(=O)N(CCc2ccc3ccccc3c2)CCN1C(=O)[C@H](N)Cc1ccc(Cl)cc1Cl [Example 51]	22	antagonist	agonist	agonist	47	95	35	
NCCC[C@H]1C(=O)N(CCc2ccc3ccccc3c2)CCN1C(=O)[C@@H](Cc1ccc(Cl)cc1Cl)NC(=O)[C@@H](N)COCc1ccccc1 [Example 52]	36	agonist	agonist	agonist	25	94	63	
N=C(N)NCCC[C@H]1C(=O)N(CCc2ccc3ccccc3c2)CCN1C(=O)[C@@H](Cc1ccc(Cl)cc1Cl)NC(=O)[C@@H](N)COCc1ccccc1 [Example 53]	81	agonist	agonist	agonist	93	99	96	
NCCCCC1C(=O)N2C(COc3ccc4ccccc4c3)CCC2N1C(=O)C(Cc1ccc(Cl)cc1)NC(=O)C1Cc2ccccc2CN1 (centres unmarked) [Example 80]								> 1
N=C(N)NCCCC1C(=O)N2C(COc3ccc4ccccc4c3)CCC2N1C(=O)C(Cc1ccccc1Cl)NC(=O)C(N)COCc1ccccc1 (centres unmarked) [Example 99]								> 1
N=C(N)NCCC[C@H]1C(=O)N2C(CC[C@@H]2COc2ccc3ccccc3c2)N1C(=O)[C@@H](Cc1ccc(Cl)cc1Cl)NC(=O)[C@@H]1C[C@@H](OCc2ccccc2)CN1 (some centres unmarked) [Example 113]	53	agonist	antagonist	agonist	84	100	100	
N=C(N)NCCC[C@H]1C(=O)N2C(CC[C@@H]2COc2ccc3ccccc3c2)N1C(=O)[C@@H](Cc1ccc(Cl)cc1Cl)NC(=O)[C@@H](N)COCc1ccccc1 (some centres unmarked) [Example 114]	53	agonist	agonist	agonist	77	100	94	
